ChEMBL document CHEMBL2169821, “Design, synthesis, and evaluation of pH-dependent hydrolyzable emetine analogues as treatment for prostate cancer” (J Med Chem, 2012)
The source made the active and inactive calls. The rule behind the calls is not given here.

Columns and labels:
PC-3 [1] = assay: Cytotoxicity against human PC3 cells measured on day 3 by MTT assay; format: functional, cell-based
PC-3 [2] = assay: Cytotoxicity against human PC3 cells measured on day 7 by MTT assay; format: functional, cell-based
[3] = Chemical stability of the compound in phosphate buffer up to 48 hrs at pH 5.5 by HPLC analysis; format: physicochemical; conditions: pH 5.5, 48 h
PC-3 [4] = assay: Cytotoxicity against human PC3 cells measured on day 5 by MTT assay; format: functional, cell-based
[5] = Chemical stability of the compound in phosphate buffer up to 48 hrs at pH 6.5 by HPLC analysis; format: physicochemical; conditions: pH 6.5, 48 h
LNCaP = assay: Cytotoxicity against human LNCAP cells measured on day 7 by MTT assay; format: functional, cell-based
[6] = Chemical stability of the compound in phosphate buffer up to 5 days at pH 7.4 by HPLC analysis; format: physicochemical
[7] = Prodrug activation in phosphate buffer assessed as emetine formation up to 48 hrs at pH 5.5 by HPLC analysis; conditions: pH 5.5, 48 h

| Compound | Activity (PC-3 [1]) | IC50 (PC-3 [2]; Homo sapiens, PC-3, 168 h) [µM] | Stability [3] | Activity (PC-3 [4]) | Stability [5] | IC50 (LNCaP; Homo sapiens, LNCaP, 168 h) [µM] | remaining at 120 h ([6]; phosphate buffer, pH 7.4, read-out: Stability) [%] | Drug metabolism [7] | Stability ([6]; buffer, pH 7.4, 120 h) [%] | IC50 (PC-3 [2]; pc-3) [µM] | IC50 (LNCaP; lncap) [µM] |
| --- | --- | --- | --- | --- | --- | --- | --- | --- | --- | --- | --- |
| CC[C@H]1CN2CCc3cc(OC)c(OC)cc3[C@@H]2C[C@@H]1C[C@@H]1c2cc(OC)c(OC)cc2CCN1C(=S)SCc1ccccc1 | Active | 1.56 | Stable | Active | Stable | 1.97 | – | – | – | – | – |
| CC[C@H]1CN2CCc3cc(OC)c(OC)cc3[C@@H]2C[C@@H]1C[C@@H]1c2cc(OC)c(OC)cc2CCN1C(=O)CCC(=O)O | – | 2.15 | – | – | – | 2.45 | – | – | – | – | – |
| CC[C@H]1CN2CCc3cc(OC)c(OC)cc3[C@@H]2C[C@@H]1C[C@@H]1c2cc(OC)c(OC)cc2CCN1S(=O)(=O)c1ccc(OC)cc1 | – | 6.08 | Stable | Active | Stable | 3.15 | – | – | – | – | – |
| CC[C@H]1CN2CCc3cc(OC)c(OC)cc3[C@@H]2C[C@@H]1C[C@@H]1c2cc(OC)c(OC)cc2CCN1C(=O)/C=C\C(=O)[O-].[Na+] | – | 7.71 | – | – | – | 8.9 | 100 | Active | – | – | – |
| CC[C@H]1CN2CCc3cc(OC)c(OC)cc3[C@@H]2C[C@@H]1C[C@@H]1c2cc(OC)c(OC)cc2CCN1S(=O)(=O)c1ccc(Cl)cc1 | Active | 4.21 | Stable | Active | Stable | 2.69 | – | – | – | – | – |
| CC[C@H]1CN2CCc3cc(OC)c(OC)cc3[C@@H]2C[C@@H]1C[C@@H]1c2cc(OC)c(OC)cc2CCN1C(=O)NCc1ccc(Cl)cc1 | Active | 10 | Stable | Active | Stable | 5.41 | – | – | – | – | – |
| CC[C@H]1CN2CCc3cc(OC)c(OC)cc3[C@@H]2C[C@@H]1C[C@@H]1c2cc(OC)c(OC)cc2CCN1C(=O)/C=C(/C)C(=O)O [listing 1 of 2 here] | – | – | – | – | – | – | – | Active | 100 | 0.378 | 0.368 |
| CC[C@H]1CN2CCc3cc(OC)c(OC)cc3[C@@H]2C[C@@H]1C[C@@H]1c2cc(OC)c(OC)cc2CCN1C(=O)/C=C(/C)C(=O)O [listing 2 of 2 here] | – | – | – | Active | – | – | – | – | – | – | – |
| CC[C@H]1CN2CCc3cc(OC)c(OC)cc3[C@@H]2C[C@@H]1C[C@@H]1c2cc(OC)c(OC)cc2CCN1C(=O)OCc1ccccc1 | Active | 6.07 | Stable | Active | Stable | 3.24 | – | – | – | – | – |
| CC[C@H]1CN2CCc3cc(OC)c(OC)cc3[C@@H]2C[C@@H]1C[C@@H]1c2cc(OC)c(OC)cc2CCN1C(=O)/C=C\C(=O)O | Active | – | – | Active | – | – | – | – | – | – | – |
| CC[C@H]1CN2CCc3cc(OC)c(OC)cc3[C@@H]2C[C@@H]1C[C@@H]1c2cc(OC)c(OC)cc2CCN1C(=S)NCc1ccc(OC)cc1 | – | 5 | Stable | Active | Stable | 3.39 | – | – | – | – | – |
